According to patent US11980209B2, “Consumables” (GIVAUDAN SA, priority 2007, dated 2024):
“Also recorded” adds a separate entry of the source.

Tests used:
Type in all cases: in vivo, human
[1] = system: perceived sweetness (panelists); experiment: Sweetness detection threshold of trilobatin in milk (Example 10)
Experimental: Trilobatin was tested by 6 panelists in whole milk.
Milk samples were 62.5 ppm, 125 ppm, 250 ppm, 500 ppm trilobatin; 1% sucrose, and 2% sucrose.

[2] = system: perceived sweetness (one panelist trained for sweetness detection); experiment: Paired comparison of 20-100 ppm trilobatin versus 0-1% sucrose (Example 1a)
Experimental: Trilobatin (20 ppm, 60 ppm, 100 ppm) in water samples were evaluated for isointensity to sucrose solutions in a concentration of 0, 0.5 and 1% sucrose using a paired comparison method. Samples were paired and tasted left to right with rinsing (water) in between, by one panelist trained for sweetness detection.
The trilobatin samples were compared to either 0%, 0.5%, or 1% sucrose solutions.

[3] = system: perceived sweet taste (sweet sensitive panelists); experiment: Ranking test with R-index, isointensity of 100 ppm trilobatin in water (Example 1b); settings: for R-index: critical values 35.39-64.61%
Experimental: The sensory evaluation was conducted using a ranking method. Samples at ambient temperature were randomly presented in 15 ml blind aliquots (unidentifiable by panelists). Panels consisted of 15 sweet sensitive subjects and samples were presented in 2 replications over 1 session. After tasting each sample, the mouth was rinsed thoroughly with water at ambient temperature prior to tasting the next sample. Panelists were presented with 0.5%, 1%, 1.5% and 2% sucrose solutions in water and a fifth sample of 100 ppm trilobatin in water. Subjects were asked to rank the samples from low to high with respect to perceived sweet taste. R-indices were calculated for 100 ppm trilobatin versus either 0.5%, 1%, 1.5% or 2% sucrose.

[4] = system: perceived sweetness (sweet sensitive panelists); experiment: Ranking test with R-index, sweetness of trilobatin (750 ppm) in yogurt (Example 13); settings: for R-index: critical value 37.4 to 62.6%
Experimental: The sucrose concentration isointense to 750 ppm trilobatin in a plain yogurt base was determined as follows.
Samples contained a plain yogurt base with 750 ppm trilobatin, or the same plain yogurt base with sucrose in various concentrations (0%, 0.5%, 1.0%, 1.5%, and 2.0% sucrose).
30 ml of each yogurt sample was served cold, in random order, to 21 sweet sensitive panelists. In two replications over 1 session, panelists were asked to rank the samples from least sweet to most sweet. The data was subjected to an R-index analysis.

[5] = system: perceived sweetness (sweet sensitive panelists); experiment: Sweetness enhancement by trilobatin in cereals (Example 11); settings: tested in whole milk, vs cereal with 1% added sucrose
Experimental: Trilobatin was tested by 4 sweet sensitive panelists in cereal samples (cereals from Kix, General Mills; USA). The cereal is a comparatively low sugar product and contains 3 g sucrose per 30 g cereal. Panelists tested the samples in whole milk. To the cereal samples, sucrose was topically added by spraying the corresponding amount of a 10% sucrose solution in water to give 1%. The samples were baked at 250° C. for about 15 minutes in a convection oven to dry/remove the water. Similarly, trilobatin was applied to cereal samples as a 0.1% solution in 50/50 w/w ethanol/water to give various trilobatin concentrations (100 ppm, 200 ppm, 400 ppm).

[6] = system: perceived sweetness (sweet sensitive panelists); experiment: Sweetness detection threshold of trilobatin in yoghurt (Example 8); settings: for Sweetness of 500 ppm trilobatin sample: plain nonfat yoghurt
Experimental: (§1) Trilobatin was tested by 6 sweet sensitive panelists in plain nonfat yoghurt.
Yoghurt samples were 500 ppm trilobatin, 1% sucrose, and 2% sucrose. Panelists compared the 500 ppm trilobatin sample to each sucrose sample and compared the sweetness, the results are indicated in the table below.

[7] = system: perceived sweet taste (sweet sensitive panelists); experiment: Ranking test, isointensity of 200 ppm trilobatin in water (Example 1c)
Experimental: The sensory evaluation was conducted using the method described in example 1b. The panels consisted of 7 sweet sensitive panelists. Panelists were presented with 0.5%, 1%, and 1.5% sucrose solutions in water and a fourth sample of 200 ppm trilobatin in water. Panelists were asked to rank the samples from low to high with respect to perceived sweet taste. 200 ppm trilobatin in water was determined to be isosweet to 1% sucrose.
The sweetness detection threshold for individuals within the average consumer group varies from below 0.4% to 0.7% sucrose or more. All examples were performed with sweet sensitive panelists able to detect at least 0.5% sucrose or less. Extrapolating from examples 1 a, b, and c, the concentration detectable by the average consumer will therefore be higher, and the average concentration near the sweetness detection threshold of the average consumer will be about 100 to 200 ppm.

[8] = system: perceived sweetness (sweet sensitive panelists); experiment: Sweetness enhancement by trilobatin in yoghurt (Example 9)
Experimental: as §1
Samples of 62.5 ppm, 125 ppm, and 500 ppm trilobatin in yoghurt sweetened with 5% sucrose were compared by panelists to a 5% sucrose sweetened yoghurt and a 7% sucrose sweetened yoghurt sample; the results are indicated in the table below.

[9] = system: perceived sweet taste (sweet sensitive panelists); experiment: Direct comparison of 100 ppm trilobatin in 7% sucrose with 7.5% sucrose solution (Example 2a); settings: all of 8 sweet sensitive panelists
[10] = 100 ppm trilobatin in water vs 0.5% sucrose
[11] = 750 ppm TL in plain yogurt vs 0% sucrose yogurt
[12] = 750 ppm TL in plain yogurt vs 0.5% sucrose yogurt
[13] = 750 ppm TL in plain yogurt vs 1% sucrose yogurt
[14] = 750 ppm TL in plain yogurt vs 1.5% sucrose yogurt
[15] = 750 ppm TL in plain yogurt vs 2% sucrose yogurt
[16] = 62.5 ppm trilobatin in yoghurt sweetened with 5% sucrose
[17] = 125 ppm trilobatin in yoghurt sweetened with 5% sucrose
[18] = 500 ppm trilobatin in 5% sucrose yoghurt

O=C(CCc1ccc(O)cc1)c1c(O)cc(O[C@@H]2O[C@H](CO)[C@@H](O)[C@H](O)[C@H]2O)cc1O [trilobatin, 1-[4-(beta-D-glucopyranosyloxy)-2,6-dihydroxyphenyl]-3-(4-hydroxyphenyl)-1-propanone]
Trilobatin sample sweetness compared to sucrose ([1]; 62.5 ppm in whole milk, 6/6 panelists): below 1% sucrose (6/6) | Trilobatin sample sweetness compared to sucrose ([1]; 125 ppm in whole milk, 6/6 panelists): below 1% sucrose (6/6) | Trilobatin sample sweetness compared to sucrose ([1]; 250 ppm in whole milk, 6/6 panelists): below 1% sucrose (6/6) | Trilobatin sample sweetness compared to sucrose ([1]; 500 ppm in whole milk, 3/6 panelists (below)): below 1% sucrose (3/6) | Taste of trilobatin samples compared to sucrose ([2]; 20 ppm trilobatin in water vs 0% sucrose): isosweet | Taste of trilobatin samples compared to sucrose ([2]; 20 ppm trilobatin in water vs 0.5% sucrose): notably less sweet | isointensity to sucrose, by interpolation ([2]; 60 ppm trilobatin in water): 0.25 % sucrose | Taste of trilobatin samples compared to sucrose ([2]; 60 ppm trilobatin in water vs 0% sucrose): weakly sweeter | Taste of trilobatin samples compared to sucrose ([2]; 60 ppm trilobatin in water vs 0.5% sucrose): less sweet | Taste of trilobatin samples compared to sucrose ([2]; 100 ppm trilobatin in water vs 0% sucrose): sweeter | Taste of trilobatin samples compared to sucrose [2, 10]: isosweet | Taste of trilobatin samples compared to sucrose ([2]; 100 ppm trilobatin in water vs 1% sucrose): less sweet | sample sweetness (trilobatin, 100 ppm) ([3]; 100 ppm in water vs 0.5% sucrose solution): Isosweet | sample sweetness (trilobatin, 100 ppm) ([3]; 100 ppm in water vs 1.0% sucrose solution): Less sweet | sample sweetness (trilobatin, 100 ppm) ([3]; 100 ppm in water vs 1.5% sucrose solution): Less sweet | sample sweetness (trilobatin, 100 ppm) ([3]; 100 ppm in water vs 2.0% sucrose solution): Less sweet | isointensity to sucrose ([3]; 100 ppm trilobatin in water): 0.5 % sucrose | R-index [3, 10]: 44% | R-index ([3]; 100 ppm trilobatin in water vs 1.0% sucrose): 13% | R-index ([3]; 100 ppm trilobatin in water vs 1.5% sucrose): 0% | R-index ([3]; 100 ppm trilobatin in water vs 2.0% sucrose): 0% | sweetness TL sample [4, 11]: sweeter | R-index [4, 11]: 82.6% | sweetness TL sample [4, 12]: isosweet | R-index [4, 12]: 58.5% | sweetness TL sample [4, 13]: less | R-index [4, 13]: 14.7% | sweetness TL sample [4, 14]: less | R-index [4, 14]: 4.4% | sweetness TL sample [4, 15]: less | R-index [4, 15]: 3.3% | isointensity to sucrose ([4]; 750 ppm trilobatin in plain yogurt): 0.5 % sucrose | Sweetness trilobatin sample ([5]; 100 ppm trilobatin on cereal): less sweet than 1% sucrose | Sweetness trilobatin sample ([5]; 200 ppm trilobatin on cereal): sweeter than 1% sucrose | Sweetness trilobatin sample ([5]; 400 ppm trilobatin on cereal): much sweeter than 1% sucrose,; also recorded: too sweet | own sweetness equivalent to sucrose ([6]; 500 ppm trilobatin in yoghurt): 1 % sucrose | Sweetness of 500 ppm trilobatin sample ([6]; vs 1% sucrose yoghurt sample): slightly less sweet/similarly sweet | Sweetness of 500 ppm trilobatin sample ([6]; vs 2% sucrose yoghurt sample): less sweet | isointensity to sucrose ([7]; 200 ppm trilobatin in water): 1 % sucrose | average concentration near the sweetness detection threshold of the average consumer ([7]; extrapolating from examples 1a, b and c): 100 to 200 ppm | sweetness trilobatin compared to 5% sucrose sample [8, 16]: + sweeter | sweetness trilobatin compared to 7% sucrose sample [8, 16]: less sweet | sweetness trilobatin compared to 5% sucrose sample [8, 17]: ++ sweeter | sweetness trilobatin compared to 7% sucrose sample [8, 17]: less sweet | sucrose level that the 5% sucrose sample tastes like [8, 18]: 7% | sweetness enhancement effect equivalent to added sucrose [8, 18]: 1 % sucrose | taste in direct comparison with 7.5% sucrose solution [9]: significantly sweeter
